# In article PMC5951806, “Rapid labelling and covalent inhibition of intracellular native proteins using ligand-directed N-acyl-N-alkyl sulfonamide” (Nature Communications, 2018):
# Legend:
# Test in all cases: TMT LC-MSMS of 11-labelled proteins
# Format in all cases: cell-based
# [1] = biological target: T1, ADP/ATP translocase 2 (SLC25A5) (Homo sapiens, UniProt P05141)
# T1 sequence (P05141 1-298): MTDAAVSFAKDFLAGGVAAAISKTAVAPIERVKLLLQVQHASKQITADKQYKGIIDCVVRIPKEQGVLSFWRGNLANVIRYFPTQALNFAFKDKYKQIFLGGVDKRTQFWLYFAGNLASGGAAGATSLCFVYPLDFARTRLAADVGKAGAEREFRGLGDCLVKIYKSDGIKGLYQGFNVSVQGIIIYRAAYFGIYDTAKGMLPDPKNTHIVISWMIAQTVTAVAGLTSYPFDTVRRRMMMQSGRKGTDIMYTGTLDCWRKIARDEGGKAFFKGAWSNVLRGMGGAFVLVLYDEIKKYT
# [2] = biological target: Fatty acid synthase (FASN) (Homo sapiens, UniProt P49327)
# Fatty acid synthase (FASN), sequence (P49327 whole entry, canonical isoform): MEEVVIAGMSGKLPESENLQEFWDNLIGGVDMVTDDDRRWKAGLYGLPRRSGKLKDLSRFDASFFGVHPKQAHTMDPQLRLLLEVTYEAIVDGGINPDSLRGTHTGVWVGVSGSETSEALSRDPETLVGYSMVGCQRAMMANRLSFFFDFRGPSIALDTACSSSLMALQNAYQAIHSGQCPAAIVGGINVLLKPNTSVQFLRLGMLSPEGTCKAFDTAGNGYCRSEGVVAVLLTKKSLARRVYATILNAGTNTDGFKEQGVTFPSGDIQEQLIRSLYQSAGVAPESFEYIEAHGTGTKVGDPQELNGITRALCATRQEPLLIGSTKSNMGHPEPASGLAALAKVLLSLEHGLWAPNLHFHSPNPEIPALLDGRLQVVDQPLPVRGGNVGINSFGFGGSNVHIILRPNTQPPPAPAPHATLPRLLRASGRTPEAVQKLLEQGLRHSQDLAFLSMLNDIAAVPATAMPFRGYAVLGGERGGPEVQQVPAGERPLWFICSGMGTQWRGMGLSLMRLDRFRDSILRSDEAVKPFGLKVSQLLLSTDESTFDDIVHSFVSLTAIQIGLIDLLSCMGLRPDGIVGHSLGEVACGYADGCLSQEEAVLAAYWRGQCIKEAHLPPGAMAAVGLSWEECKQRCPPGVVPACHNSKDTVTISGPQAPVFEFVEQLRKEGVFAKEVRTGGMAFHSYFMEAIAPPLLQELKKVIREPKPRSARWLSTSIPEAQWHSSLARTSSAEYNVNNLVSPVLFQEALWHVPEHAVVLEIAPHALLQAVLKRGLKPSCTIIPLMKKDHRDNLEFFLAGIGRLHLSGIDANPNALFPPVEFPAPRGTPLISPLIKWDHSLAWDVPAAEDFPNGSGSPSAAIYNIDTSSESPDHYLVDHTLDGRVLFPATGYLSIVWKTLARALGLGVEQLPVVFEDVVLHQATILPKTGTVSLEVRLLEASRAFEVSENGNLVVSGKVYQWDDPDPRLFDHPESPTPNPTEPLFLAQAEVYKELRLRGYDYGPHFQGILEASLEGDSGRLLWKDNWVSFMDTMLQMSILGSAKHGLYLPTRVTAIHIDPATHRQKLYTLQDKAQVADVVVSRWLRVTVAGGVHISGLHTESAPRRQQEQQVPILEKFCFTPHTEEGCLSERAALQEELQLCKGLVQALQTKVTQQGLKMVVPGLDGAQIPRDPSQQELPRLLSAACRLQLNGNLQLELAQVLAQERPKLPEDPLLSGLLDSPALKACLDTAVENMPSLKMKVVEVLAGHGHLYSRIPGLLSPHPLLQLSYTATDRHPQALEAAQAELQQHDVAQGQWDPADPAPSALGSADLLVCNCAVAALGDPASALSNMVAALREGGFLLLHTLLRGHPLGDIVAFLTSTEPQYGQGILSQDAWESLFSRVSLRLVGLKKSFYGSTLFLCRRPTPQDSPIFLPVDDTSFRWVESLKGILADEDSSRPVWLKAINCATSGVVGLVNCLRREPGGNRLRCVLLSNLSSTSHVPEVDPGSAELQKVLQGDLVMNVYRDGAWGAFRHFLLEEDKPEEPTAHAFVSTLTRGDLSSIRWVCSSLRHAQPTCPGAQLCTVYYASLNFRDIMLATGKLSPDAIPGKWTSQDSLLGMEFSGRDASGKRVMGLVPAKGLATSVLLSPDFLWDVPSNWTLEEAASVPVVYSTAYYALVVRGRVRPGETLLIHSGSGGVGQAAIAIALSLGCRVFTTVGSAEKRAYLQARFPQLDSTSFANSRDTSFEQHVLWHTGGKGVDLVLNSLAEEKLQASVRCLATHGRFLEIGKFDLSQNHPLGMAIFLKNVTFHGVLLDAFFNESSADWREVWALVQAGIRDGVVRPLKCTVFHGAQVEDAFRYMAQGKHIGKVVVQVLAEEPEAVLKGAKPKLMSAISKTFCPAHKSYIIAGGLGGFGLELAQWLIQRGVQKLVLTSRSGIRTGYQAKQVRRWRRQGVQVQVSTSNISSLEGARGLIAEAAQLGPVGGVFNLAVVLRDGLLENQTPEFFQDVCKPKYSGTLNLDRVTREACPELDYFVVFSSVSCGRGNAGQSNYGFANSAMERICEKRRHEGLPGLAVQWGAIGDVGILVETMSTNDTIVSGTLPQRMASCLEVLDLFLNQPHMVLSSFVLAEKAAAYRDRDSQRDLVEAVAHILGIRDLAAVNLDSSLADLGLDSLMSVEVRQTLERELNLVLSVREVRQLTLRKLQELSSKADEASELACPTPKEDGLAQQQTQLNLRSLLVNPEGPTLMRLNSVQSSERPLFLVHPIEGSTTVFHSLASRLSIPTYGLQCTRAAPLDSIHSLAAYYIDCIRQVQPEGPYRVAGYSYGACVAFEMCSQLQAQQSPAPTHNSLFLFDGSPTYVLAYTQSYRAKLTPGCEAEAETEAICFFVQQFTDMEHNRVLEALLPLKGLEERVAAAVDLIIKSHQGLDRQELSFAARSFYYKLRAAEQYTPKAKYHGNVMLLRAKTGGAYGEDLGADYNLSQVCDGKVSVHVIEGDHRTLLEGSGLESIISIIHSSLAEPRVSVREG
# [3] = biological target: T2, Isoform 1 of Voltage-dependent anion-selective channel protein 2 (VDAC2) (Homo sapiens, UniProt P45880)
# T2 sequence (P45880 12-294 limits assumed): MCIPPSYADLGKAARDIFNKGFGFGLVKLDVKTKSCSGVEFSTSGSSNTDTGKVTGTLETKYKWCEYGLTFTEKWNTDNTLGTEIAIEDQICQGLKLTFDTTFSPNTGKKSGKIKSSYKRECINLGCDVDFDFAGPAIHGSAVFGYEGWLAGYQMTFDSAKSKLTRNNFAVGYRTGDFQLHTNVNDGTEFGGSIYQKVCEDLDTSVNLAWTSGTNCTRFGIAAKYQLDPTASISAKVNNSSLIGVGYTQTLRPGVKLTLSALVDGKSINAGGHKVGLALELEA
# [4] = biological target: L-lactate dehydrogenase B chain (LDHB) (Homo sapiens, UniProt P07195)
# L-lactate dehydrogenase B chain (LDHB), sequence (P07195 whole entry): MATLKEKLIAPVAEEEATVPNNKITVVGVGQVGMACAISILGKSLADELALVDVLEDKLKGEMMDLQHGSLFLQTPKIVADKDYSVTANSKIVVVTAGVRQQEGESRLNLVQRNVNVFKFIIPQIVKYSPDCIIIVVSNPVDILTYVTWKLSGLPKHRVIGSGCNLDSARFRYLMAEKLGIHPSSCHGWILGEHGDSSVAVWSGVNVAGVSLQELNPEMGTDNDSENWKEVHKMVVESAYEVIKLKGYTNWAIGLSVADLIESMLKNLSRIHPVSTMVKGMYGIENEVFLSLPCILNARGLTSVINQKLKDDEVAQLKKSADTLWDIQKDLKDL
# [5] = sheet Exp1, SKBR3 cells, 11 0.5 µM 3 h vs DMSO
# [6] = sheet Exp1, SKBR3 cells, 11 0.5 µM 3 h vs with PU-H71 10 µM
# [7] = sheet Merged, SKBR3 cells, 11 0.5 µM 3 h vs DMSO
# [8] = sheet Merged, SKBR3 cells, 11 0.5 µM 3 h vs with PU-H71 10 µM
smiles,measurement,setting,value
CC(=O)Oc1ccc2c(c1)Oc1cc(OC(C)=O)ccc1C21OC(=O)c2cc(C(=O)NCCOCCOCCNC(=O)CCCC(=O)N(CC#N)S(=O)(=O)c3ccc(C(=O)NCCCn4c(Sc5cc6c(cc5I)OCO6)nc5c(N)ncnc54)cc3)ccc21 [compound 11],Abundance Ratio: (11) / (11 with PU-H71),"[1]; Exp3, SLC25A5",0.462
same,Abundance Ratio: (11) / (DMSO),"[1]; Exp3, SLC25A5",2.668
same,Abundances (Grouped): 11,"[1]; Exp3, SLC25A5",245.2
same,Abundances (Grouped): 11 with PU-H71,"[1]; Exp3, SLC25A5",530.2
same,Abundance Ratio: (11) / (DMSO),[1]; [5],5.138
same,Abundance Ratio: (11) / (11 with PU-H71),[1]; [6],0.711
same,Abundance Ratio: (11) / (11 with PU-H71),"[1]; sheet Exp2, SLC25A5",0.597
same,Abundance Ratio: (11) / (DMSO),"[1]; sheet Exp2, SLC25A5",5.273
same,Abundances (Grouped): 11,"[1]; sheet Exp2, SLC25A5",116
same,Abundances (Grouped): 11 with PU-H71,"[1]; sheet Exp2, SLC25A5",194.4
same,Abundance Ratio: (11) / (DMSO),[1]; [7],2.741
same,Abundance Ratio: (11) / (11 with PU-H71),[1]; [8],0.563
same,Abundance Ratio: (11) / (11 with PU-H71),"[2]; Exp3, FASN",0.917
same,Abundance Ratio: (11) / (DMSO),"[2]; Exp3, FASN",4.35
same,Abundances (Grouped): 11,"[2]; Exp3, FASN",3505
same,Abundances (Grouped): 11 with PU-H71,"[2]; Exp3, FASN",3823.4
same,Abundance Ratio: (11) / (DMSO),[2]; [5],4.652
same,Abundance Ratio: (11) / (11 with PU-H71),[2]; [6],0.931
same,Abundance Ratio: (11) / (11 with PU-H71),"[2]; sheet Exp2, FASN",0.929
same,Abundance Ratio: (11) / (DMSO),"[2]; sheet Exp2, FASN",4.46
same,Abundances (Grouped): 11,"[2]; sheet Exp2, FASN",3656.7
same,Abundances (Grouped): 11 with PU-H71,"[2]; sheet Exp2, FASN",3935.1
same,Abundance Ratio: (11) / (DMSO),[2]; [7],4.491
same,Abundance Ratio: (11) / (11 with PU-H71),[2]; [8],0.931
same,Abundance Ratio: (11) / (11 with PU-H71),"[3]; Exp3, VDAC2",0.617
same,Abundance Ratio: (11) / (DMSO),"[3]; Exp3, VDAC2",3.942
same,Abundances (Grouped): 11,"[3]; Exp3, VDAC2",149
same,Abundances (Grouped): 11 with PU-H71,"[3]; Exp3, VDAC2, with PU-H71",241.6
same,Abundance Ratio: (11) / (DMSO),[3]; [5],2.647
same,Abundance Ratio: (11) / (11 with PU-H71),[3]; [6],0.676
same,Abundance Ratio: (11) / (DMSO),[3]; [7],2.786
same,Abundance Ratio: (11) / (11 with PU-H71),[3]; [8],0.688
same,Abundance Ratio: (11) / (DMSO),[4]; [5],3.283
same,Abundance Ratio: (11) / (11 with PU-H71),[4]; [6],0.769
same,Abundance Ratio: (11) / (11 with PU-H71),"[4]; sheet Exp2, LDHB",0.731
same,Abundance Ratio: (11) / (DMSO),"[4]; sheet Exp2, LDHB",3.172
same,Abundances (Grouped): 11,"[4]; sheet Exp2, LDHB",66.3
same,Abundances (Grouped): 11 with PU-H71,"[4]; sheet Exp2, LDHB, with PU-H71",90.7
same,Abundance Ratio: (11) / (DMSO),[4]; [7],3.227
same,Abundance Ratio: (11) / (11 with PU-H71),[4]; [8],0.75
